Results from ChEMBL document CHEMBL4177724, “Effect of side chain hydrophobicity and cationic charge on antimicrobial activity and cytotoxicity of helical peptoids” (Bioorg Med Chem Lett, 2018).
≈ marks a conversion by molar mass, not a printed value. Non-standard residues stand in square brackets, D forms with d. Residues, ends and D or L forms follow the SMILES beside them. Nspe = C[C@H](NCC(=O)O)c1ccccc1; Nlys = NCCCCNCC(=O)O

What was measured:
[1] = Cytotoxicity against human Jurkat cells assessed as reduction in cell viability incubated for 24 hrs by MTS assay; type: cell-based; details: read-out: LC50
[2] = Induction of hemolysis in Sprague-Dawley rat erythrocytes at 200 uM incubated at 37 degC for 60 mins by spectrophotometry; type: cell-based, Erythrocyte; details: read-out: Activity
Bacillus subtilis = test: Antibacterial activity against Bacillus subtilis then incubated at 37 degC for 24 hrs by broth dilution assay; type: functional
[3] = Cytotoxicity against human MRC5 cells assessed as reduction in cell viability incubated for 24 hrs by MTS assay; type: cell-based; details: read-out: LC50
Erythrocyte = test: (§1) Induction of hemolysis in Sprague-Dawley rat erythrocytes incubated at 37 degC for 60 mins by spectrophotometry; type: cell-based; details: erythrocyte, 1 h
[4] = as §1; type: cell-based, Erythrocyte; details: Sprague-Dawley, erythrocytes, read-out: HD50
Escherichia coli = test: Antibacterial activity against Escherichia coli then incubated at 37 degC for 24 hrs by broth dilution assay; type: functional
[5] = Cytotoxicity against human LNCAP cells assessed as reduction in cell viability incubated for 24 hrs by MTS assay; type: cell-based; details: read-out: LC50

## C[C@@H](c1ccc(F)cc1)N(CC(N)=O)C(=O)CN(C(=O)CN(CCCCN)C(=O)CN(C(=O)CN(C(=O)CN(CCCCN)C(=O)CN(C(=O)CN(C(=O)CN(CCCCN)C(=O)CN(C(=O)CN(C(=O)CNCCCCN)[C@@H](C)c1ccc(F)cc1)[C@@H](C)c1ccc(F)cc1)[C@@H](C)c1ccc(F)cc1)[C@@H](C)c1ccc(F)cc1)[C@@H](C)c1ccc(F)cc1)[C@@H](C)c1ccc(F)cc1)[C@@H](C)c1ccc(F)cc1
[1]
  CC50 at 24 h: 2.47 µM
[2]
  hemolysis at 1 h, 200 µM: 100%
Bacillus subtilis
  MIC: 0.4 µM (≈ 0.785 µg/mL)
[3]
  CC50 at 24 h: 9.5 µM
Erythrocyte
  HD10: < 6.25 µM
[4]
  HC50 at 1 h: < 6.25 µM
Escherichia coli
  MIC: 3.1 µM (≈ 6.09 µg/mL)
[5]
  CC50 at 24 h: 9.5 µM

## C[C@@H](c1ccc(Cl)cc1)N(CC(N)=O)C(=O)CN(C(=O)CN(CCCCN)C(=O)CN(C(=O)CN(C(=O)CN(CCCCN)C(=O)CN(C(=O)CN(C(=O)CN(CCCCN)C(=O)CN(C(=O)CN(C(=O)CNCCCCN)[C@@H](C)c1ccc(Cl)cc1)[C@@H](C)c1ccc(Cl)cc1)[C@@H](C)c1ccc(Cl)cc1)[C@@H](C)c1ccc(Cl)cc1)[C@@H](C)c1ccc(Cl)cc1)[C@@H](C)c1ccc(Cl)cc1)[C@@H](C)c1ccc(Cl)cc1
[1]
  CC50 at 24 h: 1.58 µM
[2]
  hemolysis at 1 h, 200 µM: 100%
Bacillus subtilis
  MIC: 6.1 µM (≈ 12.8 µg/mL)
[3]
  CC50 at 24 h: 3 µM
Erythrocyte
  HD10: < 6.25 µM
[4]
  HC50 at 1 h: 10.4 µM
Escherichia coli
  MIC: > 6.1 µM
[5]
  CC50 at 24 h: 10 µM

## Cc1ccc([C@H](C)N(CC(N)=O)C(=O)CN(C(=O)CN(CCCCN)C(=O)CN(C(=O)CN(C(=O)CN(CCCCN)C(=O)CN(C(=O)CN(C(=O)CN(CCCCN)C(=O)CN(C(=O)CN(C(=O)CNCCCCN)[C@@H](C)c2ccc(C)cc2)[C@@H](C)c2ccc(C)cc2)[C@@H](C)c2ccc(C)cc2)[C@@H](C)c2ccc(C)cc2)[C@@H](C)c2ccc(C)cc2)[C@@H](C)c2ccc(C)cc2)[C@@H](C)c2ccc(C)cc2)cc1
[2]
  hemolysis at 1 h, 200 µM: 100%
Bacillus subtilis
  MIC: 0.8 µM (≈ 1.55 µg/mL)
[3]
  CC50 at 24 h: 8 µM
Erythrocyte
  HD10: < 6.25 µM
[4]
  HC50 at 1 h: 8.3 µM
Escherichia coli
  MIC: > 6.1 µM
[5]
  CC50 at 24 h: 12 µM

## C[C@@H](c1ccccc1)N(CC(=O)N(CCCCN)CC(=O)N(CC(=O)N(CC(=O)N(CCCCN)CC(=O)N(CC(=O)N(CC(=O)N(CCCCN)CC(N)=O)[C@@H](C)c1ccccc1)[C@@H](C)c1ccccc1)[C@@H](C)c1ccccc1)[C@@H](C)c1ccccc1)C(=O)CN(C(=O)CNCCCCN)[C@@H](C)c1ccccc1 (H-[Nlys][Nspe][Nspe][Nlys][Nspe][Nspe][Nlys][Nspe][Nspe][Nlys]-NH2)
[1]
  CC50 at 24 h: 28.9 µM
[2]
  hemolysis at 1 h, 200 µM: 9.8%
Bacillus subtilis
  MIC: 0.8 µM (≈ 1.2 µg/mL)
[3]
  CC50 at 24 h: 80.5 µM
Erythrocyte
  HD10: > 200 µM
[4]
  HC50 at 1 h: > 200 µM
Escherichia coli
  MIC: 1.6 µM (≈ 2.4 µg/mL)

## C[C@@H](c1ccccc1)N(CC(N)=O)C(=O)CN(C(=O)CN(CCCCN)C(=O)CN(C(=O)CN(C(=O)CN(CCCCN)C(=O)CN(C(=O)CN(C(=O)CN(CCCCN)C(=O)CN(C(=O)CN(C(=O)CNCCCCN)[C@@H](C)c1ccccc1)[C@@H](C)c1ccccc1)[C@@H](C)c1ccccc1)[C@@H](C)c1ccccc1)[C@@H](C)c1ccccc1)[C@@H](C)c1ccccc1)[C@@H](C)c1ccccc1 (H-[Nlys][Nspe][Nspe][Nlys][Nspe][Nspe][Nlys][Nspe][Nspe][Nlys][Nspe][Nspe]-NH2)
[1]
  CC50 at 24 h: 2.21 µM
[2]
  hemolysis at 1 h, 200 µM: 100%
Bacillus subtilis
  MIC: 0.8 µM (≈ 1.46 µg/mL)
[3]
  CC50 at 24 h: 8 µM
Erythrocyte
  HD10: 9.1 µM
[4]
  HC50 at 1 h: 63.4 µM
Escherichia coli
  MIC: 1.6 µM (≈ 2.91 µg/mL)
[5]
  CC50 at 24 h: 5 µM

## C[C@@H](c1ccccc1)N(CC(=O)N(CCCCN)CC(=O)N(CC(=O)N(CC(=O)N(CCCCN)CC(=O)N(CC(=O)N(CC(=O)N(CCCCN)CC(=O)N(CC(=O)N(CC(=O)N(CCCCN)CC(N)=O)[C@@H](C)c1ccccc1)[C@@H](C)c1ccccc1)[C@@H](C)c1ccccc1)[C@@H](C)c1ccccc1)[C@@H](C)c1ccccc1)[C@@H](C)c1ccccc1)C(=O)CN(C(=O)CNCCCCN)[C@@H](C)c1ccccc1 (H-[Nlys][Nspe][Nspe][Nlys][Nspe][Nspe][Nlys][Nspe][Nspe][Nlys][Nspe][Nspe][Nlys]-NH2)
[1]
  CC50 at 24 h: 5.04 µM
[2]
  hemolysis at 1 h, 200 µM: 48.1%
Bacillus subtilis
  MIC: 0.4 µM (≈ 0.779 µg/mL)
[3]
  CC50 at 24 h: 10 µM
Erythrocyte
  HD10: 19.5 µM
[4]
  HC50 at 1 h: > 200 µM
Escherichia coli
  MIC: 1.6 µM (≈ 3.12 µg/mL)

## C[C@H](c1ccccc1)N(CC(N)=O)C(=O)CN(C(=O)CN(CCCCN)C(=O)CN(C(=O)CN(C(=O)CN(CCCCN)C(=O)CN(C(=O)CN(C(=O)CNCCCCN)[C@H](C)c1ccccc1)[C@@H](C)c1ccccc1)[C@H](C)c1ccccc1)[C@@H](C)c1ccccc1)[C@H](C)c1ccccc1 (stereo in doubt)
[1]
  CC50 at 24 h: 18.6 µM
[2]
  hemolysis at 1 h, 200 µM: 38.7%
Bacillus subtilis
  MIC: 1.6 µM (≈ 2.19 µg/mL)
[3]
  CC50 at 24 h: 40 µM
Erythrocyte
  HD10: 119.5 µM
[4]
  HC50 at 1 h: > 200 µM
Escherichia coli
  MIC: 3.1 µM (≈ 4.24 µg/mL)
[5]
  CC50 at 24 h: 27 µM

## CC[C@H](C)[C@H](NC(=O)CN)C(=O)NCC(=O)N[C@@H](CCCCN)C(=O)N[C@@H](Cc1ccccc1)C(=O)N[C@@H](CC(C)C)C(=O)N[C@@H](CCCCN)C(=O)N[C@@H](CCCCN)C(=O)N[C@@H](C)C(=O)N[C@@H](CCCCN)C(=O)N[C@@H](CCCCN)C(=O)N[C@@H](Cc1ccccc1)C(=O)NCC(=O)N[C@@H](CCCCN)C(=O)N[C@@H](C)C(=O)N[C@@H](Cc1ccccc1)C(=O)N[C@H](C(=O)N[C@@H](CCCCN)C(=O)N[C@H](C(=O)N[C@@H](CC(C)C)C(=O)N[C@@H](CCCCN)C(=O)N[C@@H](CCCCN)C(N)=O)[C@@H](C)CC)C(C)C [PEXIGANAN] (H-GIGKFLKKAKKFGKAFVKILKK-NH2)
[2]
  hemolysis at 1 h, 200 µM: 21.5%
Bacillus subtilis
  MIC: 0.4 µM (≈ 0.991 µg/mL)
[3]
  CC50 at 24 h: 21.2 µM
Erythrocyte
  HD10: 113.4 µM
[4]
  HC50 at 1 h: > 200 µM
Escherichia coli
  MIC: 0.8 µM (≈ 1.98 µg/mL)
